Results reported in ChEMBL document CHEMBL1158232, “Isolation of Polyhydroxysteroids from the Gorgonian Acabaria undulata” (J Nat Prod, 1996).
Active and inactive are the calls of the source. The rule behind the calls is not given here.

Experiments:
Phospholipase A2 [1] = target: T1, Phospholipase A2 (Homo sapiens, UniProt P04054); test: Inhibition of PLA2
Target sequence in this assay (P04054 whole entry): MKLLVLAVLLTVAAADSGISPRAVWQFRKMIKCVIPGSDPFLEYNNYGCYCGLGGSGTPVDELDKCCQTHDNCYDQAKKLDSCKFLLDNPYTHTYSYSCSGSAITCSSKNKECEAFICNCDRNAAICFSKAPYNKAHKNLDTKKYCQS

DLD-1 = test: Cytotoxicity against human DLD1 cells; format: functional, cell-based
P388 = test: Cytotoxicity against mouse P388 cells; format: functional, cell-based
Phospholipase A2 [2] = target: T1, Phospholipase A2; test: Inhibition of PLA2 at 100 uM
Target sequence in this assay (P04054 23-148 limits assumed): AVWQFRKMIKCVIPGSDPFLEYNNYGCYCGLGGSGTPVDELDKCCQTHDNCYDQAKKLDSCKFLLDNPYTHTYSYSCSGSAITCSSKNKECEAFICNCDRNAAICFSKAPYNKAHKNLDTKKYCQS

Row | Structure (SMILES) | IC50 (Phospholipase A2 [1]) [µM] | IC50 (DLD-1) [µM] | IC50 (P388) [µM] | Activity (Phospholipase A2 [2])
1 | CC(C)/C=C/[C@@H](C)[C@H]1CC[C@@H]2[C@]1(C)CC[C@H]1[C@@]23O[C@@H]3[C@H](O)[C@@]2(O)C[C@@H](O)CC[C@]12C | 21.5 | 24.6 | 28.7 | –
2 | CC(=O)O[C@H]1CC[C@]2(C)[C@H]3CC[C@]4(C)[C@@H]([C@H](C)/C=C/CC(C)C)CC[C@H]4[C@]34O[C@@H]4[C@H](OC(C)=O)[C@@]2(O)C1 | – | 12.6 | 11.6 | inactive
3 | CC(C)CCC[C@@H](C)[C@H]1CC[C@@H]2[C@]1(C)CC[C@H]1[C@@]23O[C@@H]3[C@H](O)[C@@]2(O)C[C@@H](O)CC[C@]12C | 13.8 | 19.6 | 17.9 | –
4 | CC(C)C(C)/C=C/[C@@H](C)[C@H]1CC[C@@H]2[C@]1(C)CC[C@H]1[C@@]23O[C@@H]3[C@H](O)[C@@]2(O)C[C@@H](O)CC[C@]12C (some centres not stated) | – | 22.4 | 20.2 | inactive
